# Laboratory results published in US20180071317A1, “USE OF AGENTS THAT ALTER THE PERITUMORAL ENVIRONMENT FOR THE TREATMENT OF CANCER” (SERVICIO ANDALUZ DE SALUD, priority 2011, published 2018).
# What was measured:
# [1] = system: fibroblasts (PHF) co-cultured with tumor cells of human gastric adenocarcinoma (23132/87); experiment: Marker expression (IHC) in PHF co-cultured with 23132/87 tumor cells; type: cell-based; conditions: co-culture with 23132/87; SP 1 μM + antagonist 1 μM; 48 h;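 further: cultures grown in fresh plasma from a healthy human donor, values give the percentage of PHF fibroblasts positive for the marker, each experiment run in six replicates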
# Description: (§1) All cultures were maintained 48 hours, following which the same cells were included in paraffin blocks for subsequent analysis of the expression of different markers by immunohistochemistry (see Example 1). The primary antibodies used to perform immunohistochemical assays and their concentration are detailed in Example 2. All experiments were carried out sixfold. Analyzed markers in fibroblast cells (stromal cells) were: TGF-α, TGF-β1, TGF-β2, TGF-β3, SPARC, MMP-3, MMP-7, MMP-9, MMP-11, MMP-13 and MMP-14.
# [2] = system: fibroblasts (PHF) co-cultured with tumor cells of human pancreatic adenocarcinoma (CAPAN-1); experiment: Marker expression (IHC) in PHF co-cultured with CAPAN-1 tumor cells; type: cell-based; conditions: co-culture with CAPAN-1; SP 1 μM + antagonist 1 μM; 48 h;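 further: cultures grown in fresh plasma from a healthy human donor, run in six replicates, value is percent of fibroblasts positive for each marker, compared with fibroblasts cultured alone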
# Description: as §1
# [3] = system: fibroblasts (PHF) co-cultured with tumor cells of lung carcinoma (A-427); experiment: Marker expression (IHC) in PHF co-cultured with A-427 tumor cells; type: cell-based, human; conditions: co-culture with A-427 lung carcinoma; SP 1 μM + antagonist 1 μM; 48 h;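 further: cultures grown in human blood plasma from a healthy donor, value is the percentage of fibroblasts positive for each marker, six replicates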
# Description: (§2) All cultures were maintained 48 hours, following which the same cells were included in paraffin blocks for subsequent analysis of the expression of different markers by immunohistochemistry (see Example 1). […] All experiments were carried out sixfold. Analyzed markers in fibroblast cells (stromal cells) were: TGF-α, TGF-β1, TGF-β2, TGF-β3, SPARC, MMP-3, MMP-7, MMP-9, MMP-11, MMP-13 and MMP-14.
# [4] = system: fibroblasts (PHF) co-cultured with human fibrosarcoma tumor cells (HT-1080); experiment: Marker expression (IHC) in PHF co-cultured with HT-1080 tumor cells; type: cell-based; conditions: co-culture with HT-1080; SP 1 μM + antagonist 1 μM; 48 h;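 further: cultures grown in fresh human plasma from a healthy donor, six replicates, value is percent of fibroblasts positive for the marker, compared with fibroblasts cultured without tumor cells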
# Description: as §2
# [5] = system: fibroblasts (PHF) co-cultured with tumor cells of human Edwing sarcoma (MHH-ES-1); experiment: Marker expression (IHC) in PHF co-cultured with MHH-ES-1 tumor cells; type: cell-based; conditions: PHF co-cultured with MHH-ES-1 + SP + NK1 antagonist
# Description: as §2
# [6] = system: fibroblasts (PHF) co-cultured with tumor cells of human Burkitt lymphoma (CA-46); experiment: Marker expression (IHC) in PHF co-cultured with CA-46 tumor cells; type: cell-based; conditions: PHF co-cultured with CA-46 + SP + NK1 antagonist;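 further: percentage of PHF fibroblasts positive for each marker, cultures grown in fresh human plasma from a healthy donor, six replicates, compared with fibroblasts cultured alone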
# Description: as §1
# [7] = system: tumors from the tumor cell lines of Table 9; experiment: Mean tumor volume in nude mice injected subcutaneously with human tumor cells; conditions: 30 mg/kg/day oral, 7 days
structure (smiles),measurement,setting,value
C[C@@H](O[C@H]1OCCN(Cc2n[nH]c(=O)[nH]2)[C@H]1c1ccc(F)cc1)c1cc(C(F)(F)F)cc(C(F)(F)F)c1 [Aprepitant],PHF cells expressing MMP-3,[1],0%
same,PHF cells expressing MMP-7,[1],0%
same,PHF cells expressing MMP-9,[1],0%
same,PHF cells expressing MMP-11,[1],0%
same,PHF cells expressing MMP-13,[1],0%
same,PHF cells expressing MMP-14,[1],0%
same,PHF cells expressing SPARC,[1],0%
same,PHF cells expressing TGF-α,[1],0%
same,PHF cells expressing TGF-β1,[1],0%
same,PHF cells expressing TGF-β2,[1],0%
same,PHF cells expressing TGF-β3,[1],0%
same,PHF cells expressing MMP-3,[2],0%
same,PHF cells expressing MMP-7,[2],0%
same,PHF cells expressing MMP-9,[2],0%
same,PHF cells expressing MMP-11,[2],0%
same,PHF cells expressing MMP-13,[2],0%
same,PHF cells expressing MMP-14,[2],0%
same,PHF cells expressing SPARC,[2],0%
same,PHF cells expressing TGF-α,[2],0%
same,PHF cells expressing TGF-β1,[2],0%
same,PHF cells expressing TGF-β2,[2],0%
same,PHF cells expressing TGF-β3,[2],0%
same,PHF cells expressing MMP-3,[3],0%
same,PHF cells expressing MMP-7,[3],0%
same,PHF cells expressing MMP-9,[3],0%
same,PHF cells expressing MMP-11,[3],0%
same,PHF cells expressing MMP-13,[3],0%
same,PHF cells expressing MMP-14,[3],0%
same,PHF cells expressing SPARC,[3],0%
same,PHF cells expressing TGF-α,[3],0%
same,PHF cells expressing TGF-β1,[3],0%
same,PHF cells expressing TGF-β2,[3],0%
same,PHF cells expressing TGF-β3,[3],0%
same,PHF cells expressing MMP-3,[4],0%
same,PHF cells expressing MMP-7,[4],0%
same,PHF cells expressing MMP-9,[4],0%
same,PHF cells expressing MMP-11,[4],0%
same,PHF cells expressing MMP-13,[4],0%
same,PHF cells expressing MMP-14,[4],0%
same,PHF cells expressing SPARC,[4],0%
same,PHF cells expressing TGF-α,[4],0%
same,PHF cells expressing TGF-β1,[4],0%
same,PHF cells expressing TGF-β2,[4],0%
same,PHF cells expressing TGF-β3,[4],0%
same,cells expressing MMP-3,[5],0%
same,cells expressing MMP-7,[5],0%
same,cells expressing MMP-9,[5],0%
same,cells expressing MMP-11,[5],0%
same,cells expressing MMP-13,[5],0%
same,cells expressing MMP-14,[5],0%
same,cells expressing SPARC,[5],0%
same,cells expressing TGF-α,[5],0%
same,cells expressing TGF-β1,[5],0%
same,cells expressing TGF-β2,[5],0%
same,cells expressing TGF-β3,[5],0%
same,cells expressing MMP-3,[6],0%
same,cells expressing MMP-7,[6],0%
same,cells expressing MMP-9,[6],0%
same,cells expressing MMP-11,[6],0%
same,cells expressing MMP-13,[6],0%
same,cells expressing MMP-14,[6],0%
same,cells expressing SPARC,[6],0%
same,cells expressing TGF-α,[6],0%
same,cells expressing TGF-β1,[6],0%
same,cells expressing TGF-β2,[6],0%
same,cells expressing TGF-β3,[6],0%
same,Mean tumor volume,[7]; B lymphoblastic leukemia (peripheral human B lymphoblastoid cells) SD1,103 ± 8
same,Mean tumor volume,[7]; Carcinoma of human non-small cell lung COR-L23,102 ± 5
same,Mean tumor volume,[7]; Carcinoma of human non-small cell lung H-1963,98 ± 5
same,Mean tumor volume,[7]; Carcinoma of human non-small cell lung HCC-44,105 ± 7
same,Mean tumor volume,[7]; Carcinoma of human small cell lung H-209,104 ± 6
same,Mean tumor volume,[7]; Carcinoma of human urinary bladder 5637,102 ± 4
same,Mean tumor volume,[7]; Human B lymphoma BC-1,108 ± 5
same,Mean tumor volume,[7]; Human Burkitt lymphoma CA-46,109 ± 7
same,Mean tumor volume,[7]; Human Fibrosarcoma HT-1080,100 ± 4
same,Mean tumor volume,[7]; Human Hodgkin lymphoma KM-H2,101 ± 5
same,Mean tumor volume,[7]; Human Rhabdomyosarcoma A-204,102 ± 8
same,Mean tumor volume,[7]; Human T-cell leukemia/NK YT,106 ± 6
same,Mean tumor volume,[7]; Human T-lymphoma DERL human Hodgkin 7Linfoma KM-H2,105 ± 6
same,Mean tumor volume,[7]; Human breast adenocarcinoma humano MCF-7,95 ± 6
same,Mean tumor volume,[7]; Human breast carcinoma MDA-MB-468,99 ± 7
same,Mean tumor volume,[7]; Human breast carcinoma MT-3,109 ± 2
same,Mean tumor volume,[7]; Human choriocarcinoma AC-1M32,112 ± 4
same,Mean tumor volume,[7]; Human colon carcinoma SW-403,79 ± 4
same,Mean tumor volume,[7]; Human endometrial carcinoma AN3-CA,90 ± 4
same,Mean tumor volume,[7]; Human endometrial stromal sarcoma ESS-1,107 ± 4
same,Mean tumor volume,[7]; Human folicular thyroid carcinoma TT2609-C02,105 ± 7
same,Mean tumor volume,[7]; Human gastric adenocarcinoma 23132/87,77 ± 6
same,Mean tumor volume,[7]; Human glioma GAMG,108 ± 8
same,Mean tumor volume,[7]; Human lung carcinoma A-427,104 ± 4
same,Mean tumor volume,[7]; Human lung carcinoma DV-90,97 ± 3
same,Mean tumor volume,[7]; Human lymphoblastic leukemia T BE-13,102 ± 6
same,Mean tumor volume,[7]; Human malignant fibrous histiocytoma U-2197,102 ± 6
same,Mean tumor volume,[7]; Human melanoma MEL HO,104 ± 5
same,Mean tumor volume,[7]; Human multiple myeloma COLO-677,102 ± 6
same,Mean tumor volume,[7]; Human neuroblastoma KELLY,105 ± 6
same,Mean tumor volume,[7]; Human neuroblastoma bone marrow SKN-BE 2,97 ± 9
same,Mean tumor volume,[7]; Human osteosarcoma CAL-72,112 ± 4
same,Mean tumor volume,[7]; Human ovarian adenocarcinoma EFO-27,98 ± 7
same,Mean tumor volume,[7]; Human ovarian carcinoma COLO-704,101 ± 7
same,Mean tumor volume,[7]; Human pancretic adenocarcinoma CAPAN-1,86 ± 8
same,Mean tumor volume,[7]; Human pancretic adenocarcinoma PA-TU 8902,102 ± 7
same,Mean tumor volume,[7]; Human papillary thyroid carcinoma metastasizing B-CPAP,102 ± 4
same,Mean tumor volume,[7]; Human prostate carcinoma 22RV1,103 ± 5
same,Mean tumor volume,[7]; Human retinoblastoma WERI-Rb-1,99 ± 4
same,Mean tumor volume,[7]; Human thyroid carcinoma 8505C,105 ± 3
same,Mean tumor volume,[7]; Human uterine cervix carcinoma KB,103 ± 9
same,Mean tumor volume,"[7]; Melanoma humano, metástasis en ganglio linfático COLO 858",109 ± 4
same,Mean tumor volume,[7]; Sarcoma human Edwing MHH-ES-1,103 ± 5
same,Mean tumor volume,[7]; Transitional Carcinoma of human urinary bladder RT-4,102 ± 6
